Laboratory results taken from the supplement of paper PMC10307832.

Columns and labels:
Assay in all cases: relative viability (nuclei count vs DMSO), 5 days (fraction); higher = more cells survive
BI-2536 + Pemetrexed = compound: CC[C@@H]1C(=O)N(C)c2cnc(Nc3ccc(C(=O)NC4CCN(C)CC4)cc3OC)nc2N1C1CCCC1 [BI-2536] + Nc1nc2[nH]cc(CCc3ccc(C(=O)N[C@@H](CCC(=O)O)C(=O)O)cc3)c2c(=O)[nH]1 [Pemetrexed] (partner 0.2 µM)
In short: (§1)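 Medians of duplicate plates are given as relative viability. That measure is the nuclei count in treated wells divided by the count in vehicle wells. Counts were taken on 4× images of lung cancer cell lines in 1536-well plates, 5 days after pin-tool dosing the day after seeding with one drug alone or a fixed anchor-drug dose plus five library-drug doses (not always all listed) in √10 steps.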

NPK76-II-72-1 + OSI-027 = compound: CC1CC(=O)N(C2=CN=C(N=C2N1C3CCCC3)NC4=C(C=C(C=C4)C(=O)NC5CCN(CC5)C)OC)C [NPK76-II-72-1] + COc1cccc2cc(-c3nc([C@H]4CC[C@H](C(=O)O)CC4)n4ncnc(N)c34)[nH]c12 [OSI-027] (partner 0.5 µM)
In short: as §1

BI-2536 = compound: CC[C@@H]1C(=O)N(C)c2cnc(Nc3ccc(C(=O)NC4CCN(C)CC4)cc3OC)nc2N1C1CCCC1 [BI-2536]
In short: (§2)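 Viability was read as treated-well nuclei divided by vehicle-well nuclei, using the median across plates. Lung cancer cell lines in 1536-well plates were kept overnight at 37 °C, pinned with five √10-spaced library-drug doses, and after 5 days were Hoechst-stained, imaged at 4× and counted in MetaXpress. Plates passed only with control CV below 25% and at least one doubling.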

NPK76-II-72-1 = compound: CC1CC(=O)N(C2=CN=C(N=C2N1C3CCCC3)NC4=C(C=C(C=C4)C(=O)NC5CCN(CC5)C)OC)C [NPK76-II-72-1]
In short: as §2

| Cell Line | relative viability (BI-2536 + Pemetrexed; first compound 0.01 µM) | relative viability (BI-2536 + Pemetrexed; first compound 0.03162 µM) | relative viability (BI-2536 + Pemetrexed; first compound 0.1 µM) | relative viability (BI-2536 + Pemetrexed; first compound 0.3162 µM) | relative viability (BI-2536 + Pemetrexed; first compound 1 µM) | relative viability (NPK76-II-72-1 + OSI-027; first compound 0.01 µM) | relative viability (NPK76-II-72-1 + OSI-027; first compound 0.03162 µM) | relative viability (NPK76-II-72-1 + OSI-027; first compound 0.1 µM) | relative viability (NPK76-II-72-1 + OSI-027; first compound 0.3162 µM) | relative viability (NPK76-II-72-1 + OSI-027; first compound 1 µM) | relative viability (BI-2536; 0.01 µM) | relative viability (BI-2536; 0.03162 µM) | relative viability (BI-2536; 0.1 µM) | relative viability (BI-2536; 0.3162 µM) | relative viability (BI-2536; 1 µM) | relative viability (NPK76-II-72-1; 0.01 µM) | relative viability (NPK76-II-72-1; 0.03162 µM) | relative viability (NPK76-II-72-1; 0.1 µM) | relative viability (NPK76-II-72-1; 0.3162 µM) | relative viability (NPK76-II-72-1; 1 µM) |
| --- | --- | --- | --- | --- | --- | --- | --- | --- | --- | --- | --- | --- | --- | --- | --- | --- | --- | --- | --- | --- |
| PC-3 [JPC-3] | 1.23 | 1.04 | 0.319 | 0.299 | 0.24 | 0.664 | 0.742 | 0.78 | 0.711 | 0.889 | 1.07 | 0.99 | 0.751 | 0.281 | 0.282 | 1.02 | 1.11 | 0.945 | 1.08 | 1.07 |
| PC-14 | 0.15 | 0.14 | 0.132 | 0.0335 | 0.0205 | 0.778 | 0.935 | 0.981 | 0.667 | 1.08 | 0.998 | 0.926 | 0.681 | 0.0519 | 0.0481 | 0.94 | 1.05 | 0.992 | 0.997 | 1.04 |
| RERF-LC-KJ | 0.46 | 0.46 | 0.31 | 0.186 | 0.213 | 0.63 | 0.636 | 0.651 | 0.525 | 0.628 | 0.987 | 1.01 | 0.765 | 0.211 | 0.237 | 0.959 | 1.01 | 0.986 | 0.889 | 1.06 |
| SK-LU-1 | 0.94 | 0.938 | 0.392 | 0.265 | 0.243 | 0.321 | 0.355 | 0.368 | 0.361 | 0.406 | 1.03 | 0.989 | 0.477 | 0.248 | 0.225 | 0.987 | 1.02 | 1.02 | 0.947 | 1.01 |
| SK-MES-1 | 0.912 | 0.887 | 0.66 | 0.205 | 0.197 | 0.585 | 0.617 | 0.583 | 0.661 | 0.742 | 1.07 | 0.975 | 0.614 | 0.196 | 0.179 | 0.986 | 1.03 | 0.989 | 1.01 | 1.09 |
| SW 900 | 0.492 | 0.468 | 0.46 | 0.198 | 0.149 | 0.542 | 0.475 | 0.513 | 0.601 | 0.713 | 0.883 | 0.937 | 0.696 | 0.244 | 0.205 | 0.786 | 0.757 | 0.796 | 0.936 | 0.947 |
| SW 1573 | 0.753 | 0.516 | 0.149 | 0.124 | 0.0813 | 0.704 | 0.65 | 0.603 | 0.599 | 0.664 | 1.05 | 0.921 | 0.487 | 0.131 | 0.134 | 0.902 | 1 | 0.988 | 0.956 | 0.969 |
